Reference: paper PMC12657321, “Pre-clinical evaluation of a potent and effective Pin1-degrading agent in pancreatic cancer” (Molecular Therapy Oncology, 2025)
Non-standard residues stand in square brackets, D forms with d. Residues, ends and D or L forms follow the SMILES beside them. *: point of attachment. Trp(6-Cl) = N[C@@H](Cc1c[nH]c2cc(Cl)ccc12)C(=O)O; Pip = O=C(O)[C@@H]1CCCCN1; ClAc = O=C(CCl)*

How the values were obtained:
[1] = Stability in aqueous buffer (1x PBS); type: physicochemical; conditions: 1x phosphate buffered saline, 1 μg/mL, 37°C, up to 6 h, acetonitrile quench, LC-MS/MS
Experimental: (§1) A solution of a Pin1 inhibitor was spiked into blank plasma at 1 μg/mL in various solutions, including an aqueous buffer (1× phosphate-buffered saline; Fisher Scientific, Fair Lawn, NJ), human plasma (Innovative Research Inc., Novi, MI), wild-type mouse plasma (Innovative Research Inc., Novi, MI), plasma form esterase-deficient mice (City of Hope, Duarte, CA), and plasma from Black 6-Cg mice (City of Hope, Duarte, CA).
(§2) The spiked plasma samples were incubated at 37°C for up to 6 h. At each designated time point, a 20 μL aliquot of the incubation sample was removed and quenched in 100 μL of acetonitrile. At the end of the incubation, the quenched samples were vortexed and centrifuged for 10 min at 4°C and 20,000 × g. The resulting supernatant was reconstituted and analyzed by LC-MS/MS.
(§3) Table S2. Stability half-life of agents reported in Table 1 after incubation at 37 °C in various media. Acq represents aqueous buffer composed of 1x phosphate buffered saline (Fisher Scientific, Fair Lawn, NJ); human represents human plasma (Innovative Research Inc., Novi, MI); mouse wt represents wild type mouse plasma (Innovative Research Inc., Novi, MI); mouse ES1e represents plasma form esterase deficient mice (City of Hope, Duarte, CA); mouse B6-Cg represents plasma from black 6-Cg mice (City of Hope, Duarte, CA). See Figure 1 for the chemical structures of these compounds.
(§4) Compound Acq Human Mouse Mouse ES1e Mouse

[2] = Stability in plasma from esterase-deficient (ES1e) mice; type: in vitro ADME; conditions: mouse, 37°C, up to 6 h, acetonitrile quench, LC-MS/MS
Experimental: as §1, §2, §3, §4

[3] = Stability in plasma from Black 6-Cg mice; type: in vitro ADME; conditions: Black 6-Cg (B6-Cg), mouse, 37°C, up to 6 h, acetonitrile quench, LC-MS/MS
Experimental: as §1, §2, §3, §4

Pin1 in BxPC3 cells = Pin1 in BxPC3 cells (Homo sapiens, UniProt Q13526); assay: Pin1 recovery after degradation, capillary electrophoresis immunoassay, BxPC3; type: cell-based; set-up: endogenous in cells; host or cells: BxPC3; conditions: BxPC3, 5 μM for 24 h, washed, serum-free media, 48 h after wash; two independent replicates
Experimental: To preliminarily assess the duration of Pin1 degradation in cancer cells, BxPC3 and KPC cells were treated with 164B8 for 24 h, washed, and then incubated in serum-free medium for various time points. Pin1 levels were then measured by capillary electrophoresis (Figure 3).
Figure 3 Western blot-like images of Pin1 recovery after degradation by 164B8 using capillary electrophoresis immunoassay (A) BxPC3 cells were pretreated with either 0.1% DMSO or 5 μM 164B8 for 24 h before washing and incubating in serum-free media to evaluate Pin1 recovery at 0, 6, 12, 24, and 48 h. (B) The experiment was performed in two independent replicates, and the results are plotted with the associated standard deviation. (C and D), as in (A) and (B), respectively, but testing the agents against the KPC cell line.
For capillary electrophoresis immunoassays (Figure 3), following protein quantification via the bicinchoninic acid (BCA) assay, the Jess Simple Western instrument (Protein Simple, Bio-Techne, Minneapolis, MN, USA) was utilized according to the manufacturer’s protocol for the 12–230 kDa separation module (SM-W001, Bio-Techne). […] The resulting data were analyzed using Compass for Simple Western software (v.6.3.0), utilizing the default high dynamic range 4.0 image settings and Gaussian peak fitting to obtain the area under each curve for quantification and analysis.

Chain of Pin1 in BxPC3 cells (Q13526 whole entry): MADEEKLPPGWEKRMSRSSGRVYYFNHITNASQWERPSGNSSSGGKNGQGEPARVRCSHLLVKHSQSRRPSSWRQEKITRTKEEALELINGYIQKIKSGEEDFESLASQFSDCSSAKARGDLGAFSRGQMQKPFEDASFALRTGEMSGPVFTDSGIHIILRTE

CNC(=O)[C@H](Cc1c[nH]c2ccccc12)NC(=O)[C@@H]1CCCCN1C(=O)[C@H](Cc1c[nH]c2cc(Cl)ccc12)NC(=O)CCl [164B8] (ClAc-[Trp(6-Cl)]-[Pip]-Trp-NHMe)
Stability half-life, Acq (aqueous buffer) [1]: > 5 h | half-life at 1 μg/mL [2]: > 300 min | half-life at 1 μg/mL [3]: > 300 min | Pin1 levels restored after exposure and wash-out (Pin1 in BxPC3 cells): approximately 50%
